Paper PMC6268586, “Effect of Wine and Vinegar Processing of Rhizoma Corydalis on the Tissue Distribution of Tetrahydropalmatine, Protopine and Dehydrocorydaline in Rats” (Molecules, 2012)
Where two headings read alike, the source gives them in different places.

Test: Tissue distribution of THP, DHC and protopine in rat tissues after gastric gavage administration (HPLC-UV, non-compartmental analysis)
Assay type: in vivo, Wistar male rats
Details: male, Wistar, po, 26.1 mg/kg; for AUC(0-t): read-out: AUC0–24 h of DHC; for Cmax: read-out: Cmax of DHC; for MRT: read-out: MRT of DHC; for Tmax: read-out: Tmax of DHC
Procedure: The experimental protocol was approved by the University's Animal Ethics Committee. […] Rats had unlimited access to water. Standard food was given until 12 h before the experiments. Rhizoma Corydalis was processed according to Pharmacopoeia of Chinese Medicine and National Guideline of Traditional Chinese Medicinal Plants Processing. Briefly, fresh Rhizoma Corydalis was boiled in water till the pith turn light brown color. Cooked rhizome was sliced into pieces (4 mm, diameter) and dried at 25 °C. Dried slices were mixed with edible vinegar (100:20, rhizome/vinegar, w/v) or yellow wine (100:10, rhizome/wine, w/v) and the slices allowed to completely absorb the vinegar or wine. The soaked slices were then stir-fried in a metallic pan over a low flame till they were completely dry. The processed Rhizoma Corydalis was added with 70% ethanol (1:30 w/v) and sonicated for 1 h at room temperature. The extract was then concentrated to remove the ethanol residue and stored at 4 °C for further use. […] The ethanol extract of the unprocessed Rhizoma Corydalis and THP, DHC and protopine pure compound were used as the controls. Three hundred and sixty healthy rats were used in total and are divided into six groups (Group 1-6, sixty rats per group). Drugs were administrated by gastric gavage method. In order to keep the dose of THP, DHC and protopine constant in each group, the amount of ethanol extract of Rhizoma Corydalis administrated was normalized based on the dose of protopine pure compound used. The dose of THP and DHC pure compound administrated was same with that in the ethanol extract of Rhizoma Corydalis. The details were listed below. […] Rats were administrated with the 70% ethanol extract of unprocessed Rhizoma Corydalis at a dose of 17.75 g extract/kg body weight. […] Rats received the extract of vinegar-processed Rhizoma Corydalis at a dose of 15 g extract/kg rat body weight. Group 3: Rats were administrated with the extract of wine processed Rhizoma Corydalis at a dose of 15.78 g extract/kg body weight. […] Rats received THP pure compound at a dose of 6.45 mg/kg body weight. Group 6: Rats were administrated 26.10 mg of DHC pure compound/kg body weight. […] Brian tissue was further dissected into six parts: cerebrum, cerebellum, diencephalons, brain stem, hippocampus and striatum. All the tissue samples were rinsed with ice-old saline and stored at -20 °C until extraction. Tissue samples were homogenized in three volumes of ice-cold biological saline and centrifuged for 10 min at 10,000 g and 4 °C. An aliquot of the supernatant (0.5 mL) was collected. Liquid-liquid extraction was used to extract THP, DHC and protopine. One hundred microliter of 1.0 μg/mL nuciferin (internal standard) was mixed with 0.5 mL aliquots of the supernatant. […] The supernatant was evaporated completely under the nitrogen stream in a 60 °C water bath. The residue was redissolved in 100 μL of methanol. A CoMetro HPLC system (CoMetro Technology Ltd, South […], NJ, USA) with 6000 PVW detector UV-VIS detector was used. […] Ltd., Liaoning, China). Other chromatographic conditions were: column temperature, 35 °C; mobile phase, acetonitrile-0.1% phosphoric acid (pH 3.0) (30:70 v/v); flow rate, 1 mL/min; wavelength, 280 nm. Pharmacokinetic parameters were estimated by non-compartmental analysis using Equiv Test/PK (Statistical Solutions Ltd., Saugus, MA, USA). The maximum concentration (Cmax) and the time to reach the maximum concentration (Tmax) were directly obtained from the observed value. All data were represented as mean ± SD. Comparison of values between groups was performed using one-way ANOVA followed by Tukey's test for comparisons among four groups.

[1] = diencephalon, rat diencephalons

COc1cc2c(cc1OC)-c1c(C)c3ccc(OC)c(OC)c3c[n+]1CC2 [DHC, dehydrocorydaline]
AUC(0-t) [1]: 210 ± 50 ng·h/mL | Cmax [1]: 80 ± 20 ng/mL | MRT [1]: 5.3 ± 0.12 h | Tmax [1]: 0.52 ± 0.11 h | AUC(0-t) (rat brain stem): 410 ± 60 ng·h/mL | Cmax (rat brain stem): 160 ± 30 ng/mL | MRT (rat brain stem): 4.29 ± 0.15 h | Tmax (rat brain stem): 0.5 h | AUC(0-t) (rat cerebellum): 170 ± 30 ng·h/mL | Cmax (rat cerebellum): 50 ± 20 ng/mL | MRT (rat cerebellum): 5.67 ± 0.32 h | Tmax (rat cerebellum): 0.25 h | AUC(0-t) (rat cerebrum): 150 ± 30 ng·h/mL | Cmax (rat cerebrum): 50 ± 10 ng/mL | MRT (rat cerebrum): 5.39 ± 0.19 h | Tmax (rat cerebrum): 0.25 ± 0.02 h | AUC(0-t) (rat heart): 850 ± 120 ng·h/mL | Cmax (rat heart): 440 ± 130 ng/mL | MRT (rat heart): 8.72 ± 6.38 h | Tmax (rat heart): 0.25 h | AUC(0-t) (rat hippocampus): 270 ± 60 ng·h/mL | Cmax (rat hippocampus): 70 ± 20 ng/mL | MRT (rat hippocampus): 8.43 ± 0.51 h | Tmax (rat hippocampus): 1.08 ± 0.07 h | AUC(0-t) (rat kidney): 890 ± 90 ng·h/mL | Cmax (rat kidney): 310 ± 20 ng/mL | MRT (rat kidney): 4.94 ± 0.12 h | Tmax (rat kidney): 0.25 ± 0.01 h | AUC(0-t) (rat liver): 1570 ± 340 ng·h/mL | Cmax (rat liver): 620 ± 180 ng/mL | MRT (rat liver): 4.85 ± 0.1 h | Tmax (rat liver): 0.25 h | AUC(0-t) (rat lung): 570 ± 130 ng·h/mL | Cmax (rat lung): 370 ± 110 ng/mL | MRT (rat lung): 3.98 ± 0.1 h | Tmax (rat lung): 0.25 ± 0.01 h | AUC(0-t) (rat spleen): 830 ± 190 ng·h/mL | Cmax (rat spleen): 360 ± 80 ng/mL | MRT (rat spleen): 3.26 ± 0.08 h | Tmax (rat spleen): 0.25 ± 0.1 h | AUC(0-t) (rat striatum): 210 ± 40 ng·h/mL | Cmax (rat striatum): 60 ± 20 ng/mL | MRT (rat striatum): 7.27 ± 0.3 h | Tmax (rat striatum): 0.25 ± 0.01 h
